Patent US4560695A, “Isoxazolyl and isothiazolyl aromatase inhibitors” (Eli Lilly and Company, priority 1984, dated 1985)

Tests used:
estrogen synthesis = assay: Estrogen synthesis inhibition in rats (uterine weight and ovarian steroid concentrations); type: in vivo, Wistar rats; conditions: seven days
Protocol: By virtue of their ability to inhibit the enzyme aromatase, the compounds of this invention are able to inhibit the synthesis of estrogens in mammals, thereby making the compounds useful in the treatment of estrogen-dependent diseases, such as breast cancer.
Immature female Wistar rats (44-55 grams) were divided into control and test groups of 5-8 animals each. Test compounds were administered for seven days as a component of the diet. Control animals received diet without the test compound. Beginning on the fourth day of the test, all animals treated with the test compound and one half of the control animals were given a subcutaneous injection of 1.0 mg of testosterone propionate in corn oil. The remaining control animals received only an equivalent volume of corn oil. On the seventh day of the test, rats treated with testosterone propionate were injected subcutaneously with 100 μCi of [^3 H]-testosterone in 50 μl of 3:1 (v/v) saline-ethanol.
After two hours, the animals were killed by decapitation. Uteri were isolated, trimmed of extraneous connective tissue, and weighed. […] In the control animals treated with testosterone propionate, estrogens produced by aromatization stimulated the uterus resulting in an increase in weight. […] Ovaries from rats treated with [^3 H]-testosterone were excised, cleaned of extraneous tissue, and homogenized in 2.5 ml of a 1.0 mM potassium phosphate buffer containing 3.0 mM MgCl2.6H2 O, 320 mM sucrose, and 0.25% Triton X-100 (polyethylene glycol p-isooctyl phenyl ether, Rohm and Haas) at pH 6.5. The ovarian steroids were extracted with 1.5 ml of 9:1 (v/v) toluene/ethanol to which had been added 25 to 100 mcg each of unlabelled estradiol, estriol, and estrone, and approximately 1000 dpm of [^14 C]-estradiol. The samples were vortexed, centrifuged at 500×g for 10 minutes, and the organic phase was transferred to a conical vial. Two additional extractions were performed on the residue in the same way. The pooled organic extracts were evaporated for subsequent thin-layer chromatography.
Ovarian proteins were precipitated by the addition of 5.0 ml of ethanol to the remaining aqueous phase. […] Protein was determined according to the method of Bradford, Analytical Biochemistry, 72, 248 (1976). […]
The visible spots were marked and the plates were sprayed with primulin (0.001% in 4:1 v/v acetone/water) according to the method of Wright, J. Chromatography, 59, 220 (1971) which allowed for the identification of additional steroids under 365 nm UV light. […] The organic solvent was evaporated and 10.0 ml of scintillation fluid (Beckman Ready Solv-NA) was added to the vials. Samples were analyzed by liquid scintillation spectrometry. […] Steroid concentrations are expressed as femtomoles per milligram protein.

aromatase = biological target: T1, aromatase (Rattus norvegicus, UniProt P22443); assay: Aromatase inhibition in the rat ovarian microsome assay; type: biochemical; conditions: substrate (androstenedione) concentration 0.1 μM; rat ovarian microsomes
T1 construct: ovarian microsomes are obtained from rats treated with pregnant mares serum gonadotropin; from tissue; host or cells: ovarian microsomes from rats treated with pregnant mares serum gonadotropin
T1 sequence (P22443 1-508): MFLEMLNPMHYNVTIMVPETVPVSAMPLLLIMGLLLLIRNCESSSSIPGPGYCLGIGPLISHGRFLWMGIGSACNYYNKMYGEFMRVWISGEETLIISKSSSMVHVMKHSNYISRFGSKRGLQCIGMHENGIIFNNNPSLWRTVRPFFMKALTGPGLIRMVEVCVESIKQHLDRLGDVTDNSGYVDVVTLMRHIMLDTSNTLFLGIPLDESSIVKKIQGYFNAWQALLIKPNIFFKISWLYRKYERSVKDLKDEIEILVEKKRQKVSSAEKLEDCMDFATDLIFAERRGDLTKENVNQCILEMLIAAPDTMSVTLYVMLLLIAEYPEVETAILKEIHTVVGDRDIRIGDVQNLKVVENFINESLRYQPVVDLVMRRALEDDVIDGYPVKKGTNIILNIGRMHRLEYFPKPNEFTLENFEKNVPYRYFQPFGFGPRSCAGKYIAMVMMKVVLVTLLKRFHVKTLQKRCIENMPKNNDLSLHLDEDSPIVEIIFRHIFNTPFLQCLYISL
Protocol: In this test system, ovarian microsomes are obtained from rats treated with pregnant mares serum gonadotropin. Test compounds are added to reaction vials containing 0.1 μM 4-androstene-3,17-dione, 100,000 dpm 1,2[^3 H]-androstenedione, the microsomes and a NADPH generating system. The concentrations of the inhibitors tested ranged between 0.005 and 10 μM.

breast cancer = conditions: Cancer Research, Vol. 42, Suppl. 8:3261s (1982); cited from earlier work

With OC(c1ccc(Cl)cc1)(c1ccc(Cl)cc1)c1ccns1 [Example 1, α,α-Bis(4-chlorophenyl)-5-isothiazolemethanol] as the molecule, how does the “Mean Uterine Weight” value (estrogen synthesis; 200 ppm in feed (approximately 20 mg/kg/day), testosterone propionate-treated immature female Wistar rats, 5 animals, ^+ p < 0.05 vs testosterone-treated control (203.4)) read?
The value was 110.8 mg.

What about the “Mean Steroid Concentration, estriol” value (estrogen synthesis; ovaries, 200 ppm in feed, [3H]-testosterone, ^+ p < 0.05 vs testosterone-treated control (0.25)) of the same molecule?
Its value is 0.88 femtomoles per milligram of protein.

And the “Mean Steroid Concentration, estrone” value (estrogen synthesis; ovaries, 200 ppm in feed, [3H]-testosterone, testosterone-treated control 0.19)?
Its value is 0.44 femtomoles per milligram of protein.

What about the “Mean Steroid Concentration, estradiol” value (estrogen synthesis; ovaries, 200 ppm in feed, [3H]-testosterone, testosterone-treated control 1.70) of the same molecule?
The value was 1.18 femtomoles per milligram of protein.

For OC(c1ccccc1)(c1ccccc1)c1ccns1 [Example 2, α,α-Diphenyl-5-isothiazolemethanol], which EC50 (aromatase) is on record?
Its EC50 is 4.45 µM.

With CCC1(c2ccc(N)cc2)CCC(=O)NC1=O (stereo not shown) [aminoglutethimide] as the molecule, how does the “Effect in treatment of breast cancer” value (breast cancer) read?
Its value is “beneficial effect”.

With C[C@]12C=CC(=O)C=C1CC[C@@H]1[C@@H]2CC[C@]2(C)OC(=O)CC[C@@H]12 [testolactone] as the molecule, how does the “Effect in treatment of breast cancer” value (breast cancer) read?
Its value is “beneficial effect”.
